Laboratory results published in US8153630B2, “Kinase inhibitors” (Miikana Therapeutics, Inc., priority 2004, dated 2012).

How the values were obtained:
recombinant Aurora A = molecular target: T1, recombinant Aurora A (Homo sapiens, UniProt O14965); assay: PanVera Z'-Lyte Aurora kinase assay; assay type: biochemical; settings: Z'-Lyte Ser/Thr 1 peptide 2 μM, ATP 10 μM, 1 h
T1 construct: purchased Upstate, Lake Placid, N.Y
T1 sequence (O14965 1-403): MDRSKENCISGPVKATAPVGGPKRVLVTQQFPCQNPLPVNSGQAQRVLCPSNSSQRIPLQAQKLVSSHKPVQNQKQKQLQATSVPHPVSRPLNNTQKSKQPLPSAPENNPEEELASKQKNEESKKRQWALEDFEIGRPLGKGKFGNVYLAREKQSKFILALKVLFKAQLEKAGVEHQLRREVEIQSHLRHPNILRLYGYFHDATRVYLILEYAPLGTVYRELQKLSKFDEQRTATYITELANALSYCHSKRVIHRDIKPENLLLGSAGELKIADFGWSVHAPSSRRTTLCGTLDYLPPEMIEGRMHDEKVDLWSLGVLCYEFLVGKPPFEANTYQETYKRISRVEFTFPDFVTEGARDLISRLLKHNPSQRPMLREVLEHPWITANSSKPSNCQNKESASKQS
Method: Compounds 7-14 above were tested for their potency against recombinant Aurora A (Upstate, Lake Placid, N.Y.) using the PanVera Z'-Lyte kinase assay kit—Ser/Thr 1 peptide (Invitrogen, Carlsbad, Calif.). Assays were carried out in kinase assay buffer (50 mM HEPES, pH 7.5, 10 mM MgCl2, 5 mM EGTA, 0.05% Brij-35, 2 mM DTT). Test compounds were initially dissolved in DMSO at 100× the highest tested concentration, then serially diluted to 4× test concentrations in kinase assay buffer. Next, Aurora A (final concentration 200-500 ng/mL), Z′-Lyte Ser/Thr 1 peptide (final concentration 2 μM) and ATP (final concentration 10 μM) were added according to the manufacturer's instructions. Assays were carried out in half-area 96-well white polystyrene assay plates (Corning, Corning, N.Y.) in a final volume of 20 μL. The reaction was allowed to proceed for 1 h at room temperature in the dark, at which point the development reagent and stop reagent were added according to the manufacturer's instructions. Coumarin (Ex. 400 nm, Em. 465 nm) and fluorescein (Ex. 400 nm, Em. 565 nm) fluorescence values were measured on a SpectraFluor Plus plate reader (Tecan, Durham, N.C.). The emission ratio (coumarin/fluorescein) was determined and used to calculate the percent phosphorylation for each well. Wells containing substrate but no kinase and wells containing a phosphopeptide control were used to set 0% and 100% phosphorylation values, respectively. Typically 20-40% of the substrate was phosphorylated in wells without inhibitor. Dose-response curves of relative Aurora A activity vs. inhibitor concentration were plotted with Grafit (Erithacus Software, Horley, Surrey, UK) and used to calculate IC50 values.

Aurora B kinase = Aurora B kinase (Homo sapiens, UniProt Q96GD4); assay: Aurora B (Aurora 1) inhibition assay; assay type: biochemical; settings: compound concentration 100 μM; ATP 50 μM, 16 h; read-out: inhibition of the Aurora B enzyme
Sequence of Aurora B kinase (Q96GD4 whole entry): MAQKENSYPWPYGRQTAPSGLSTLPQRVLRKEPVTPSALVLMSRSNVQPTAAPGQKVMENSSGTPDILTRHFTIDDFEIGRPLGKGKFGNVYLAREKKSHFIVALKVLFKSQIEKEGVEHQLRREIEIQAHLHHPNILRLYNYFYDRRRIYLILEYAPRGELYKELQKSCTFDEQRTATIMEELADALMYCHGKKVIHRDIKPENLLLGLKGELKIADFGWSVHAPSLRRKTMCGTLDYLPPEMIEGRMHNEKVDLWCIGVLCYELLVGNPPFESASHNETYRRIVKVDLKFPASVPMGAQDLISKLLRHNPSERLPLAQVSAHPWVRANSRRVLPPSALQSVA

HCT 116 Cells = assay: Aurora kinase whole cell cytotoxicity assay: Sulforhodamine B; assay type: cell-based; settings: Homo sapiens, HCT116, SRB staining, 96 hours incubation
Method: Human tumour-derived cell lines, HCT116 or MCF7 (ATCC) were plated in a 96 well plate in DMEM containing 10% fetal bovine serum and 2 mM L-glutamine at a density of 500 HCT116 cells or 1,000 MCF7 cells per well and incubated at 37° C., 5% CO2, for 24 hours prior to the addition of experimental compounds. Compounds were added using the dilution series indicated to duplicate plates and the cells were incubated in media plus compound for 96 hours. An additional plate was fixed in 10% TCA at the time of the addition of compound to provide a measurement of the cell population at time zero, the time of drug addition. Following the 96 hour incubation, cells were fixed in situ by gently aspirating off the culture media and then adding 50 ul of ice cold 10% TCA per well and incubation at 4° C. for 60 minutes. The plates were washed with tap water five times and allowed to air dry for 5 minute. 50 ul of a 0.4% (w/v) Sulforhodamine B solution in 1% (v/v) acetic acid was added per well and the cells were incubated for 30 minutes at room temperature. Following staining, plates were washed four times with 1% acetic acid to remove any unbound dye and then allowed to air dry for 5 minutes. The stain was solubilized with 100 ul of 10 mM Tris pH 10.5 per well and placed on an orbital rotator for 5 minutes. The absorbance was read at 570 nm. Percentage growth was calculated using the absorbance readings from the time zero plate (Tz) and the dilution series plate […] which included a column of cells grown in media without compound as a control (C) using the formulas: [(Ti−Tz)/(C−Tz)]×100 for concentrations for which Ti>/=Tz [(Ti−Tz)/Tz]×100 for concentrations for which Ti<Tz.
Three dose response parameters were calculated for each experimental agent. Growth inhibition of 50% (GI50) was calculated from [(Ti−Tz)/(C−Tz)]×100=50, which was the drug concentration resulting in a 50% reduction in the net protein increase (as measured by SRB staining) in control cells during the drug incubation. The drug concentration resulting in total growth inhibition (TGI) was calculated from Ti=Tz. The LC50 (concentration of drug resulting in a 50% reduction in the measured protein at the end of the drug treatment as compared to that at the beginning) indicating a net loss of cells following treatment ws calculated from [(Ti−Tz)/Tz]×100=−50. Values are calculated for each of these three parameters if the level of activity was reached; however, if the effect was not reached or was exceeded, the value for that parameter is expressed as greater or less than the maximum or minimum concentration tested.

Row | Structure (SMILES) | IC50 (recombinant Aurora A) | inhibition at 100 µM (Aurora B kinase) | GI50 (HCT 116 Cells)
1 | CCOC(=O)c1nc(Sc2ccc(NC(=O)C3CC3)cc2)nc(Nc2cc(C)[nH]n2)c1N [Compound 11, Ethyl 2-(4-cyclopropanecarboxamidophenylsulfanyl)-5-amino-6-(5-methylpyrazol-3-ylamino)-4-pyrimidinecarboxylate] | < 100 nM | 100% | 100 to 1000 nM
2 | Cc1cc(Nc2nc(Sc3ccc(NC(=O)C4CC4)cc3)nc(C(=O)NCCN3CCOCC3)c2N)n[nH]1 [Compound 52, N-(2-Morpholin-4-ylethyl) 2-(4-cyclopropanecarboxamidophenylsulfanyl)-5-amino-6-(5-methylpyrazol-3-ylamino)-4-pyrimidinecarboxamide] | < 100 nM | 100% | 100 to 1000 nM
